Experimental data: patent publication US8461329B2, “Isoquinoline derivative” (Taisho Pharmaceutical Co., Ltd., priority 2008, dated 2013)

Each molecule was assayed against T1, CRTH2 (KB8 cells) (Homo sapiens, UniProt Q9Y5Y4) (assay: CRTH2 antagonist test (PGD2-induced intracellular calcium ion concentration increase in KB8 cells)). Details: PGD2 100 nM, Fluo-4 calcium fluorescence, read-out: CRTH2 antagonist activity IC50 value.
T1 construct: host or cells: KB8 cells (human CRTH2 expression cell)
T1 sequence (Q9Y5Y4 1-395): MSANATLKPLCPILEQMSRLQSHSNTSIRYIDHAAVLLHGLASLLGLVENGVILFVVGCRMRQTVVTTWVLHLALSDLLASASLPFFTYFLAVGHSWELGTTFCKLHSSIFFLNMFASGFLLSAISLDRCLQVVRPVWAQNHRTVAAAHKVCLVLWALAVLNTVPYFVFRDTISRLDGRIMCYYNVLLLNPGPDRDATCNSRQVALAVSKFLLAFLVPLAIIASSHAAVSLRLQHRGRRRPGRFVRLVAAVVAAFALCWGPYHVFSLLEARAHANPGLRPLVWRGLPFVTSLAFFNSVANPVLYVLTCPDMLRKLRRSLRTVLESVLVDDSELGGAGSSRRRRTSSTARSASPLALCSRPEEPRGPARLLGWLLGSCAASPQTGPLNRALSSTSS
Type: cell-based
Procedure: The antagonist activity of the compound of the present invention was considered by using the intracellular calcium ion concentration increase reaction induced when the prostaglandin D2 was added to KB8 cells.
Fluo-4-AM (4-(6-acetoxymethoxy-2,7-difluoro-3-oxo-9-xanthenyl)-4′-methyl-2,2′-(ethylenedioxy)dianilide-N,N,N′,N′-tetraacetic acid tetrakis(acetoxymethyl) ester (SIGMA, final concentration: 1 μM) was added to KB8 cells, and the cells were incubated at 37° C. for 30 min, washed with phosphate buffer (Invitrogen), and then suspended in Hank's balanced salt solution (Invitrogen)) containing a reaction buffer solution (10 mM HEPES (Invitrogen), and 1 mM calcium chloride (SIGMA). The suspension was dispensed in a 96 well plate (Nunc) so that 2×10^5 cells/well were placed, and the compound of the present invention and PGD2 (final concentration: 100 nM) were added. The fluorescence intensity thereof was measured over time by using FDSS6000 (Hamamatsu Photonics), and thus the maximum fluorescence intensity value “d” was obtained. The same procedure was carried out in the absence of the compound, and the maximum fluorescence intensity value “e” was obtained; and the same procedure was carried out in the absence of the compound and […], and the maximum fluorescence intensity value “f” was obtained.
The calcium ion concentration increase inhibition rate of a compound was calculated by the following calculation formula: Inhibitory rate(%)=[1−(d−f)/(e−f)]×100
That is to say, by using calcium ion concentration increase inhibitory rates of compounds to be tested having various concentrations, the IC50 value was calculated according to a dose-dependent inhibition curve analyzed by using XLfit (IDBS) as a data analysis software, and the value was defined as an indicator of the antagonist activity. In Tables, A denotes an inhibitory activity showing the IC50 value of less than 50 nM; B denotes an inhibitory activity showing the IC50 value of 50 nM or greater and less than 500 nM; C denotes an inhibitory activity showing the IC50 value of 500 nM or greater and less than 1000 nM; and D denotes an inhibitory activity showing the IC50 value of 1000 nM or greater.

Row | Compound | IC50 [nM]
1 | O=C(O)Cc1cnc(Cc2ccc(C(=O)NCCc3ccc(C(F)(F)F)cc3)cc2)c2ccccc12 [Example 201] | 20
2 | O=C(O)Cc1cnc(Cc2ccc(C(=O)NCCc3cc4cc(Cl)ccc4[nH]3)cc2)c2ccccc12 [Example 234] | 5.9
3 | O=C(O)Cc1cnc(C(=O)c2ccc(NC(=O)c3cc4cc(F)ccc4[nH]3)cc2)c2ccccc12 [Example 122] | 2.3

Same assay, conditions: PGD2 final concentration 100 nM, Fluo-4-AM fluorescence, read-out: antagonist activity (IC50 value, inhibition of calcium ion concentration increase)

Row | Compound | IC50 [nM]
4 | O=C(O)Cc1cnc(C(=O)c2ccc(NC(=O)COc3ccc(Cl)cc3)cc2)c2ccccc12 [Example 87] | 50 to 500
5 | COc1ccccc1CCNC(=O)c1ccc(Cc2ncc(CC(=O)O)c3ccccc23)cc1 [Example 184] | 50 to 500
6 | O=C(O)Cc1cnc(C(=O)c2ccc(NC(=O)c3cc(F)c(Cl)cc3Cl)cc2)c2ccccc12 [Example 56] | 50 to 500
7 | O=C(O)Cc1cnc(Cc2ccc(C(=O)NCCNC(=O)c3ccc(Cl)cc3)cc2)c2ccccc12 [Example 247] | 50 to 500
8 | Cc1ccc(CCNC(=O)c2ccc(Cc3ncc(CC(=O)O)c4ccccc34)cc2)cc1 [Example 165] | < 50
9 | O=C(O)Cc1cnc(Cc2ccc(C(=O)NCCc3ccc(C(F)(F)F)cc3)cc2)c2ccccc12 [Example 201] | < 50
10 | O=C(O)Cc1cnc(C(=O)c2ccc(NC(=O)c3cccnn3)cc2)c2ccccc12 [Example 98] | ≥ 1000
11 | Cc1cccc(C(=O)Nc2ccc(C(=O)c3ncc(CC(=O)O)c4ccccc34)cc2)c1 [Example 73] | < 50
12 | O=C(O)Cc1cnc(Cc2ccc(C(=O)Nc3ccc(Cl)c(Cl)c3)cc2)c2ccccc12 [Example 158] | < 50
13 | NS(=O)(=O)c1ccc(C(=O)Nc2ccc(C(=O)c3ncc(CC(=O)O)c4ccccc34)cc2)cc1 [Example 109] | 50 to 500
14 | O=C(O)Cc1cnc(C(=O)c2ccc(NC(=O)c3ccc(F)c(F)c3)cc2)c2ccccc12 [Example 35] | < 50
15 | Cc1cccc(C)c1CCNC(=O)c1ccc(Cc2ncc(CC(=O)O)c3ccccc23)cc1 [Example 217] | < 50
16 | O=C(O)Cc1cnc(Cc2ccc(C(=O)NCCc3cc4cc(F)ccc4[nH]3)cc2)c2ccccc12 [Example 235] | < 50
17 | O=C(O)Cc1cnc(C(=O)c2ccc(NC(=O)c3ccc(F)c(F)c3F)cc2)c2ccccc12 [Example 52] | 50 to 500
18 | Cc1c(C)c(C)c(CCNC(=O)c2ccc(Cc3ncc(CC(=O)O)c4ccccc34)cc2)c(C)c1C [Example 192] | < 50
19 | O=C(O)Cc1cnc(Cc2ccc(C(=O)NCCc3ccc([N+](=O)[O-])cc3)cc2)c2ccccc12 [Example 174] | 50 to 500
20 | O=C(O)Cc1cnc(C(=O)c2ccc(NC(=O)c3ccc4ncccc4c3)cc2)c2ccccc12 [Example 67] | 50 to 500
21 | O=C(O)Cc1cnc(C(=O)c2ccc(NC(=O)c3c[nH]cn3)cc2)c2ccccc12 [Example 97] | ≥ 1000
22 | O=C(O)Cc1cnc(Cc2ccc(C(=O)NCCc3ccc4c(c3)CCCC4)cc2)c2ccccc12 [Example 218] | < 50
23 | Cc1cc(C(=O)Nc2ccc(C(=O)c3ncc(CC(=O)O)c4ccccc34)cc2)ccc1Cl [Example 107] | < 50

Row | Compound | IC50 [nM]
24 | CC(C)Oc1ccc(CCNC(=O)c2ccc(Cc3ncc(CC(=O)O)c4ccccc34)cc2)cc1 [Example 225] | < 50
25 | O=C(O)Cc1cnc(C(=O)c2ccc(NC(=O)c3ncccn3)cc2)c2ccccc12 [Example 55] | 500 to 1000
26 | O=C(O)Cc1cnc(Cc2ccc(C(=O)NCCCc3ccc(Cl)cc3)cc2)c2ccccc12 [Example 164] | < 50
27 | O=C(O)Cc1cnc(C(=O)c2ccc(NC(=O)c3cc(Cl)cc(Cl)c3Cl)cc2)c2ccccc12 [Example 45] | 50 to 500
28 | O=C(O)Cc1cnc(C(=O)c2ccc(NC(=O)c3cn4ccccc4n3)cc2)c2ccccc12 [Example 121] | 50 to 500
29 | Cc1ccc(C)c(CCNC(=O)c2ccc(Cc3ncc(CC(=O)O)c4ccccc34)cc2)c1 [Example 169] | 50 to 500
30 | O=C(O)Cc1cnc(C(=O)c2ccc(NC(=O)c3cc(F)c(F)c(F)c3F)cc2)c2ccccc12 [Example 118] | 500 to 1000
31 | CC(C)Oc1ccc(C(=O)Nc2ccc(C(=O)c3ncc(CC(=O)O)c4ccccc34)cc2)cc1 [Example 115] | < 50
32 | O=C(O)Cc1cnc(C(=O)c2ccc(NC(=O)c3ccc4ccccc4n3)cc2)c2ccccc12 [Example 93] | < 50
33 | O=C(O)Cc1cnc(C(=O)c2ccc(NC(=O)c3cccc4cccnc34)cc2)c2ccccc12 [Example 104] | ≥ 1000
34 | Cc1ccc(CCNC(=O)c2ccc(Cc3ncc(CC(=O)O)c4ccccc34)cc2)c(C)c1 [Example 208] | < 50
35 | O=C(O)Cc1cnc(Cc2ccc(C(=O)NCCc3ccc(Cl)c(Cl)c3)cc2)c2ccccc12 [Example 160] | < 50
36 | O=C(O)Cc1cnc(C(=O)c2ccc(NC(=O)c3ccc(Cl)c(F)c3)cc2)c2ccccc12 [Example 31] | < 50
37 | O=C(NCCc1ccc(Cl)cc1)c1ccc(Cc2ncc(Cc3nnn[nH]3)c3ccccc23)cc1 [Example 257, N-[2-(4-chlorophenyl)ethyl]-4-{[4-(1H-tetrazol-5-ylmethyl)isoquinolin-1-yl]methyl}benzamide] | ≥ 1000
38 | O=C(O)Cc1cnc(C(=O)c2ccc(NC(=O)c3ccc4nccnc4c3)cc2)c2ccccc12 [Example 117] | 500 to 1000
39 | O=C(O)Cc1cnc(Cc2ccc(C(=O)NCCc3csc4ccccc34)cc2)c2ccccc12 [Example 230] | < 50
40 | O=C(O)Cc1cnc(C(=O)c2ccc(NC(=O)c3ccc4cnccc4n3)cc2)c2ccccc12 [Example 124] | 500 to 1000
41 | O=C(O)Cc1cnc(C(=O)c2ccc(NC(=O)c3cscn3)cc2)c2ccccc12 [Example 58] | ≥ 1000
42 | CS(=O)(=O)c1ccc(CCNC(=O)c2ccc(Cc3ncc(CC(=O)O)c4ccccc34)cc2)cc1 [Example 207] | ≥ 1000
43 | O=C(O)Cc1cnc(Cc2ccc(C(=O)NCCc3ccc(Oc4ccccc4)cc3)cc2)c2ccccc12 [Example 195] | < 50

Row | Compound | IC50 [nM]
44 | O=C(O)Cc1cnc(Cc2ccc(C(=O)NCCc3ccc(F)cc3Cl)cc2)c2ccccc12 [Example 233] | < 50
45 | COc1ccc(/C=C/C(=O)Nc2ccc(C(=O)c3ncc(CC(=O)O)c4ccccc34)cc2)cc1 [Example 84] | < 50
46 | O=C(O)Cc1cnc(C(=O)c2ccc(NC(=O)c3cc4c([nH]3)CCCC4)cc2)c2ccccc12 [Example 94] | < 50
47 | O=C(O)Cc1cnc(Cc2ccc(C(=O)NCCc3cccc(Br)c3)cc2)c2ccccc12 [Example 172] | 50 to 500
48 | COc1cccc(C(=O)Nc2ccc(C(=O)c3ncc(CC(=O)O)c4ccccc34)cc2)c1 [Example 72] | < 50
49 | Cc1ccc2sc(CCNC(=O)c3ccc(Cc4ncc(CC(=O)O)c5ccccc45)cc3)cc2c1 [Example 242] | < 50
50 | O=C(O)Cc1cnc(Cc2ccc(C(=O)NCC3(c4ccc(Cl)cc4)CC3)cc2)c2ccccc12 [Example 246] | 50 to 500
51 | O=C(O)Cc1cnc(C(=O)c2ccc(NC(=O)c3cccc4ccccc34)cc2)c2ccccc12 [Example 46] | 50 to 500
52 | O=C(O)Cc1cnc(Cc2ccc(C(=O)NCCC3CCOCC3)cc2)c2ccccc12 [Example 214] | ≥ 1000
53 | O=C(O)Cc1cnc(C(=O)c2ccc(NC(=O)Cc3c[nH]c4ccccc34)cc2)c2ccccc12 [Example 126] | < 50
54 | O=C(O)Cc1cnc(Cc2ccc(C(=O)NCCc3cc4cc(Cl)ccc4[nH]3)cc2)c2ccccc12 [Example 234] | < 50
55 | Cc1ccc(Cl)c(C(=O)Nc2ccc(C(=O)c3ncc(CC(=O)O)c4ccccc34)cc2)c1F [Example 49] | ≥ 1000
56 | CC(C)(C(=O)O)c1cnc(C(=O)c2ccc(C(=O)NCCc3ccc(Cl)cc3)cc2)c2ccccc12 [Example 255, 2-{1-[(4-{[2-(4-chlorophenyl)ethyl]carbamoyl}phenyl)carbonyl]isoquinolin-4-yl}-2-methylpropanoic acid] | ≥ 1000
57 | O=C(O)Cc1cnc(Cc2ccccc2OCc2ccc(Cl)cc2)c2ccccc12 [Example 252, (1-{2-[(4-chlorobenzyl)oxy]benzyl}isoquinolin-4-yl)acetic acid] | ≥ 1000
58 | O=C(O)Cc1cnc(C(=O)c2ccc(NC(=O)c3cc4cc(F)ccc4[nH]3)cc2)c2ccccc12 [Example 122] | < 50
59 | Cc1cc(F)ccc1C(=O)Nc1ccc(C(=O)c2ncc(CC(=O)O)c3ccccc23)cc1 [Example 61] | 50 to 500
60 | O=C(O)Cc1cnc(C(=O)c2ccc(NC(=O)c3cccnc3)cc2)c2ccccc12 [Example 66] | ≥ 1000
61 | COc1ccc(CCNC(=O)c2ccc(Cc3ncc(CC(=O)O)c4ccccc34)cc2)cc1Cl [Example 157] | < 50
